According to PMC12362587, “Untargeted Diversity-Oriented Synthesis for the Discovery of New Antitumor Agents: An Integrated Approach of Inverse Virtual Screening, Bioinformatics, and Omics for Target Deconvolution” (Journal of Medicinal Chemistry, 2025):

Key:
rat TRPA1 = molecular target: T1, rat TRPA1 (Rattus norvegicus, UniProt Q6RI86); assay: Ca2+-imaging assay with Fluo-4 AM; type: cell-based; details: agonist effect, HEK-293 cells overexpressing rat TRPA1, Fluo-4 AM; read-out: EC50 or IC50, transient receptor potential A1
T1 construct: expressed in transfected cells; host or cells: HEK-293
T1 sequence (Q6RI86 whole entry): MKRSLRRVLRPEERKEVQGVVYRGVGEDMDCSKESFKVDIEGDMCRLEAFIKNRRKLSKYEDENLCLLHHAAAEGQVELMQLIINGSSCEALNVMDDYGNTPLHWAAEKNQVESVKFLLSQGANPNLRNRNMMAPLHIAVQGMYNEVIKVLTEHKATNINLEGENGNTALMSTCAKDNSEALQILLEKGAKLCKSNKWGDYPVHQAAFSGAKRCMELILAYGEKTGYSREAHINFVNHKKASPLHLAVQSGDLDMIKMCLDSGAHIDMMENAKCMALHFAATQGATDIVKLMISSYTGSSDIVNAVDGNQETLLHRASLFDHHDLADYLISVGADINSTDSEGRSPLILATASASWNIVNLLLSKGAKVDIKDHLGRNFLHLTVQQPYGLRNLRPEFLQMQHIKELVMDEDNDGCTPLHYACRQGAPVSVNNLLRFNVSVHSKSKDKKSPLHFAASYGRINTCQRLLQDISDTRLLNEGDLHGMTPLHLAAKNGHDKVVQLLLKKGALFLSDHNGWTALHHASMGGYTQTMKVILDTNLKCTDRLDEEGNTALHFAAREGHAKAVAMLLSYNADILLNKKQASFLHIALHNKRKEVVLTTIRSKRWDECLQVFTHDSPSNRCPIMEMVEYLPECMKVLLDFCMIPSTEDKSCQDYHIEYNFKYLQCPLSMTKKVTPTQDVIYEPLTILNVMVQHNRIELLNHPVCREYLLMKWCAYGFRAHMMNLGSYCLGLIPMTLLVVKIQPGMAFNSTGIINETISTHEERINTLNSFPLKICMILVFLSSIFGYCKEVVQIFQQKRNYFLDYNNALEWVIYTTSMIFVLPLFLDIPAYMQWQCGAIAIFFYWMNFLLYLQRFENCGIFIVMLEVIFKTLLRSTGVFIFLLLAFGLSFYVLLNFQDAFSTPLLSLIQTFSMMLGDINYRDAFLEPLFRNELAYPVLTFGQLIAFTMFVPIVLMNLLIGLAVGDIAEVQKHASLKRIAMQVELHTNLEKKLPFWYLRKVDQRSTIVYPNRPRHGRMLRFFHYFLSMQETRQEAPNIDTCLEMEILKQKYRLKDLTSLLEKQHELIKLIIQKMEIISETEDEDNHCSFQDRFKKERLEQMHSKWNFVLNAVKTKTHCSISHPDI
Description: (§1) HEK-293 cells, stably overexpressing recombinant rat TRPM8 or rat TRPA1, were cultured as monolayers in 100 mm Petri dishes using Minimum Essential Media supplemented with 2 mM glutamine, 1% nonessential amino acids, 10% FBS, and maintained at 37 °C under 5% CO2. On the day of the experiment, both nontransfected and transfected HEK-293 cells were loaded for 1 h at room temperature in the dark with the calcium-sensitive fluorescent probe Fluo-4 AM (4 μM, dissolved in dimethyl sulfoxide with 0.02% Pluronic F-127). After loading, cells were washed twice with Tyrode’s solution (145 mM NaCl, 2.5 mM KCl, 1.5 mM CaCl2, 1.2 mM MgCl2, 10 mM D-glucose, 10 mM HEPES, pH 7.4) and transferred to a quartz cuvette (approximately 100,000 cells) in a spectrofluorometer (PerkinElmer LS50B; λEX = 488 nm, λEM = 516 nm) under continuous stirring. Fluorescence was recorded before and after the addition of various concentrations of test compounds. The observed effects were normalized to the response elicited by ionomycin (4 μM). Baseline fluorescence values from nontransfected HEK-293 cells were subtracted from the measurements obtained in transfected cells. The potency of the test compounds was expressed as the concentration required to elicit a half-maximal agonist effect (EC50), measured as half-maximal increases in intracellular calcium concentration ([Ca^2+]-i). The efficacy of TRPA1 agonists was reported as a percentage of the maximal effect induced by allyl isothiocyanate (AITC, 100 μM). Antagonistic or desensitizing effects were assessed by preincubating cells with the test compounds in the quartz cuvette for 5 min before stimulating them with the specific TRP agonist (AITC, 100 μM for TRPA1, or icilin, 0.25 μM for TRPM8). IC50 values were determined as the concentration required to produce a half-maximal inhibition of the agonist effect, with the agonist-induced [Ca^2+]-i response set at 100%. Measurements of [Ca^2+]-i in TRPM8-expressing cells were conducted at 22 °C using a Fluorescence Peltier System (PTP-1, PerkinElmer). All experiments were performed in triplicate or greater. Curve fitting (sigmoidal concentration–response with variable slope) and parameter estimation were conducted using GraphPad Prism 10 (GraphPad Software Inc., San Diego, CA).

rat TRPM8 = molecular target: T2, rat TRPM8 (Rattus norvegicus, UniProt Q8R455); assay: Ca2+-imaging assay with Fluo-4 AM; type: cell-based; details: inhibition of icilin 0.25 μM, HEK-293 cells overexpressing rat TRPM8, Fluo-4 AM; read-out: EC50 or IC50, transient receptor potential M8
T2 construct: expressed in transfected cells; host or cells: HEK-293
T2 sequence (Q8R455 whole entry): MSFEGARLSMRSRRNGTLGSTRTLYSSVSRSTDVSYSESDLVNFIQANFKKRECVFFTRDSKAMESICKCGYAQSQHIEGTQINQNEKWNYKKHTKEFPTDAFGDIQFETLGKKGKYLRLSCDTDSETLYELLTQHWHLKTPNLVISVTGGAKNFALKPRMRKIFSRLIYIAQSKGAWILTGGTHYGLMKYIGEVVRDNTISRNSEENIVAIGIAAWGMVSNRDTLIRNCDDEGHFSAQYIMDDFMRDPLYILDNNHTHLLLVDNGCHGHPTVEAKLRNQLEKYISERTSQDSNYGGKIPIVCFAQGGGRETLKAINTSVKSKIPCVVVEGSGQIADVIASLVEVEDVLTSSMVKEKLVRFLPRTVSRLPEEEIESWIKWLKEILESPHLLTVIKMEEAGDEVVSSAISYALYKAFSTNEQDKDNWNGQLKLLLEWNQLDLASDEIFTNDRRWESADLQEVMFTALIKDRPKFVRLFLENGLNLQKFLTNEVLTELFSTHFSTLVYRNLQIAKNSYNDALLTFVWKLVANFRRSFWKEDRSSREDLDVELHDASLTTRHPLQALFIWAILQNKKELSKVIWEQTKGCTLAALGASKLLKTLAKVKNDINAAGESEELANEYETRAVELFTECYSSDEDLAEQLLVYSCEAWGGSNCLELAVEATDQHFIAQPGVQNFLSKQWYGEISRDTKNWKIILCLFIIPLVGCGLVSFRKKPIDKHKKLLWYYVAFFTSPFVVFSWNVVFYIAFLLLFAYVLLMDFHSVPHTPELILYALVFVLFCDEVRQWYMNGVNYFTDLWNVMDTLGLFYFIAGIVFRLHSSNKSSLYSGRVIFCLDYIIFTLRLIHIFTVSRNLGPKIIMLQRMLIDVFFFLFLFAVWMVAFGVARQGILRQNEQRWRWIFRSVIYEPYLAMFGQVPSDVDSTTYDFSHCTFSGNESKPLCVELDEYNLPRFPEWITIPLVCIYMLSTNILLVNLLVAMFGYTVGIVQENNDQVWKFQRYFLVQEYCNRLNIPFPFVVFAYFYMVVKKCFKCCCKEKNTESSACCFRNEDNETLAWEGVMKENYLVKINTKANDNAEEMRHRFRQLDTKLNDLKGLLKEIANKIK
Description: as §1

[1] = molecular target: T3, Poly [ADP-ribose] polymerase 1 (Homo sapiens, UniProt P09874); assay: PARP1 Colorimetric Assay Kit (BPS Bioscience); type: biochemical; details: top concentration 30 μM; read-out: EC50 or IC50, Poly [ADP-ribose] polymerase 1
T3 construct: purchased BPS Bioscience
T3 sequence (P09874 whole entry): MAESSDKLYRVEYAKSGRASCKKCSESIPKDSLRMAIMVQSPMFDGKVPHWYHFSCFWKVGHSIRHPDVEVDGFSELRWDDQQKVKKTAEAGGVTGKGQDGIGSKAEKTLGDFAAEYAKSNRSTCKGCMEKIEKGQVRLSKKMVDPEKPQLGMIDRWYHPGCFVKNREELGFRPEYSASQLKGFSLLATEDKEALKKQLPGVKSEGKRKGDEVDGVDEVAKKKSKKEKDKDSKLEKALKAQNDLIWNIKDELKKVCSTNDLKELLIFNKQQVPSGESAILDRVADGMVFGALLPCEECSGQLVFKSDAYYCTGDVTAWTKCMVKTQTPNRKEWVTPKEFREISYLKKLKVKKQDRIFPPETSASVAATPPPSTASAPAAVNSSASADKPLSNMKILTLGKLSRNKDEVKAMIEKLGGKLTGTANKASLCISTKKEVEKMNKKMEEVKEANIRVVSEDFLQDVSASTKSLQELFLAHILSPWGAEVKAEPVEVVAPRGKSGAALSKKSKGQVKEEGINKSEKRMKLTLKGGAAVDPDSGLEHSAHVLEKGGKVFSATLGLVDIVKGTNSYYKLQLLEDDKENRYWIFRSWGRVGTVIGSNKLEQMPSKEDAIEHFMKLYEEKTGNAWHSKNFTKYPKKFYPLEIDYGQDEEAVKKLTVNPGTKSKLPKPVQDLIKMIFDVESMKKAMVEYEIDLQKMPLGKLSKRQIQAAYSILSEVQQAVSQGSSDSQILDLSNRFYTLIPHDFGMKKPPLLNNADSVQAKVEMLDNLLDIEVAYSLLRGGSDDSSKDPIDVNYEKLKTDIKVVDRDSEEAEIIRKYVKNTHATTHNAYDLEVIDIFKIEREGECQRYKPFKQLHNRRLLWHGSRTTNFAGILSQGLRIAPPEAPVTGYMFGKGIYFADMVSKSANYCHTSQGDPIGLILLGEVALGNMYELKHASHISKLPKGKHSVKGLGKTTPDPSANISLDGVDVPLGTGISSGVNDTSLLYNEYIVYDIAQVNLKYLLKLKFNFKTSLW
Description: The assay was performed in a volume of 50 μL in 96-well transparent plates. The PARP1 assay kit (BPS Bioscience, USA) was performed by first coating the 96-well plate with histone proteins, then left at 4 °C overnight. Next, Poly [ADP-ribose] polymerase 1 (PARP1) enzyme (final concentration, 0.33 ng per reaction), a mixture of biotinylated NAD^+ (PARP substrate) and compounds were incubated for 1 h at room temperature. The compounds were added at different concentrations in the reaction buffer, starting from a final concentration of 30 μM. Buffer with the same amount of DMSO (1%) was used as a negative control. After incubation, the plate was treated with streptavidin-HRP followed by the addition of the colorimetric HRP substrate generating a colored solution. The generated signal was read at an absorbance of 450 nm using a microplate reader with UV/vis spectrophotometer (Multiskan Go, Thermo Fisher Scientific, Waltham, MA, USA). Experiments were performed in triplicate. IC50 values were calculated with GraphPad Prism 8.0 software by nonlinear dose–response inhibition regression.

A375 cells = assay: Thioflavin T (ThT) protein misfolding assay; type: cell-based, human; details: 24 h, 31: 10, 5, 2.5 μM, 63: 20, 10, 5 μM
Description: Protein misfolding was analyzed using ThT, (Sigma-Aldrich, St. Louis, MO, USA) staining. A375 cells (5 × 10^3 cells/well) were grown in 96-well plates and allowed to adhere for 24 h. Later the medium was replaced, and cells were treated with compounds (31: 10, 5, and 2.5 μM; 63: 20, 10, and 5 μM), for 24 h. After treatments, the culture medium was replaced, cells washed twice with PBS and then suspended in 100 μL ThT (20 μM). After washing, a staining solution containing 20 μM ThT in PBS was added for 30 min at 37 °C in the dark. The stained cells were washed, and representative images were acquired using ZOE Fluorescent Cell Imaging System (Magnification, 20×). Quantitative analyses were performed reading the fluorescence signals (excitation/emission 450 nm/482 nm) using a PerkinElmer EnSpire multimode plate reader (PerkinElmer, Waltham, MA, USA).

[2] = molecular target: T4, Vascular Endothelial Growth Factor Receptor-1 Flt-1 (VEGFR1) (FLT1) (Homo sapiens, UniProt P17948); assay: Kinase Enzymatic Radiometric [10 uM ATP] KinaseProfiler LeadHunter Assay; type: biochemical; details: Eurofins, read-out: EC50 or IC50, VEGFR1 (FLT1)
T4 construct: Eurofins (contract assay)
T4 sequence (P17948 27-1338): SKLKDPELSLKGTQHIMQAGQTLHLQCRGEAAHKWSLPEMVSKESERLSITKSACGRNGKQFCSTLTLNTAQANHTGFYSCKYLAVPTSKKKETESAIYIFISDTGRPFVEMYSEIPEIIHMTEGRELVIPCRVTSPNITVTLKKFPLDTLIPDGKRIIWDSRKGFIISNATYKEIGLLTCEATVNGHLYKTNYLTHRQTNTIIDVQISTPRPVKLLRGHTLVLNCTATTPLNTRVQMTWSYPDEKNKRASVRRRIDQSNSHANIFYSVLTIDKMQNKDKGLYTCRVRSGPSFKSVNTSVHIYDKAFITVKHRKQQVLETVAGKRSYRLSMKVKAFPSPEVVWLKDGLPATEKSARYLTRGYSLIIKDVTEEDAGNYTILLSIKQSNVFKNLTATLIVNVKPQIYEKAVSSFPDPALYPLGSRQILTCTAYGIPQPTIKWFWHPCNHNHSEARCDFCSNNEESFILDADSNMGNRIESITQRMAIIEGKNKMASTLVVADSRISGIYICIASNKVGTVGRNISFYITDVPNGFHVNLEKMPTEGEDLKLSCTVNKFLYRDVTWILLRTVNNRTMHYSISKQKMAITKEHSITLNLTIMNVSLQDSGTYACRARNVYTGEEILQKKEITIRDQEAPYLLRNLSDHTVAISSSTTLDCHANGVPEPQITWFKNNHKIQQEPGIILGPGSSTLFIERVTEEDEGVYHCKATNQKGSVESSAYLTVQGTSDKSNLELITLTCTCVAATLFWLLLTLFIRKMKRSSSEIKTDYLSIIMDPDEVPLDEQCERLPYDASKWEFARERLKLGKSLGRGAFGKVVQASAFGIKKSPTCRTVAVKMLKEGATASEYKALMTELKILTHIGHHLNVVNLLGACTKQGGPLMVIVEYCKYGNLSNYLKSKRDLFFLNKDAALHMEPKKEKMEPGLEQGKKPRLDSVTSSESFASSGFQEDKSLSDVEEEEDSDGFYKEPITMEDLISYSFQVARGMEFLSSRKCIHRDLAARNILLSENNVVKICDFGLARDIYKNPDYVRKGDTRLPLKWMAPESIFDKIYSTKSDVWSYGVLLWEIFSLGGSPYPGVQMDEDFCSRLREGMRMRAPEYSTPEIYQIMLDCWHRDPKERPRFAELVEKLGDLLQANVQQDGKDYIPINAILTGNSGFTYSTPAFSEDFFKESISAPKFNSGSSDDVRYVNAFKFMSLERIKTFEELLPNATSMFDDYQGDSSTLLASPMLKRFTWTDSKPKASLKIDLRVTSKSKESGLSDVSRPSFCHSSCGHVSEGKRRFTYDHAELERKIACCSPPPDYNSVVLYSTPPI
Description: (§2) For displacement assays on G-protein coupled receptor 55 (GPR55), Vasopressin V2 receptor (V2R), Adenosine A1 receptor (A1AR), Fibroblast growth factor receptor 1 (FGFR1), Vascular endothelial growth factor receptor 2 (VEGFR2), Platelet-derived growth factor receptor beta (PDGFRB), Vascular endothelial growth factor receptor 1 (VEGFR1), Thromboxane Synthase (TXS) and Phosphodiesterase 10A (PDE10A), we commissioned the Eurofins company which employed its specific experimental methods, accessible at the link: https://www.eurofins.com/.

A1 Human Adenosine GPCR = molecular target: T5, A1 Human Adenosine GPCR (Homo sapiens, UniProt P30542); assay: Binding Antagonist Radioligand LeadHunter Assay; details: Eurofins, read-out: EC50 or IC50, A1 Human Adenosine GPCR, antagonist radioligand
T5 construct: Eurofins (contract assay)
T5 sequence (P30542 1-326): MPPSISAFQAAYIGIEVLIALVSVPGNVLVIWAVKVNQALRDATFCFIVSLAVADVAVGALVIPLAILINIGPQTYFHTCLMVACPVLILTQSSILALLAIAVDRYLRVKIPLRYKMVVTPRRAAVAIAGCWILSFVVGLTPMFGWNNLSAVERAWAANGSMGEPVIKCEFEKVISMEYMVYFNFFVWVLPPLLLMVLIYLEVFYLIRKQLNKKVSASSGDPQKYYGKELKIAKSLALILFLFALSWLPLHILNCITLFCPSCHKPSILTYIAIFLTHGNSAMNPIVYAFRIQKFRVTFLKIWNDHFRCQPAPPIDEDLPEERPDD
Description: as §2

SMILES | EC50 (rat TRPA1) | IC50 (rat TRPM8) | IC50 [1] | misfolded protein levels (ThT fluorescence) (A375 cells) | IC50 [2] | IC50 (A1 Human Adenosine GPCR)
CC(C)C[C@H]1C(=O)N(Cc2ccc(C(F)(F)F)cc2)c2ccccc2C(=O)N1Cc1ccc(C(F)(F)F)cc1 [Compound 31, (S)-3-Isobutyl-1,4-bis(4-(trifluoromethyl)benzyl)-3,4-dihydro-1H-benzo[e][1,4]diazepine-2,5-dione] | 0.2 ± 0.09 µM | > 30 µM | > 30 µM | maximum accumulation of misfolded proteins even at 10 μM | ≥ 30 µM | ≥ 30 µM
CC(C)C[C@@H](C(=O)OCc1ccccc1)N1Cc2ccccc2NC1=O [Compound 63, Benzyl (S)-4-Methyl-2-(2-oxo-1,4-dihydroquinazolin-3(2H)-yl)pentanoate] | 2.54 ± 1.2 µM | 0.36 ± 0.08 µM | > 30 µM | greatest increase in fluorescence at 20 μM | ≥ 30 µM | ≥ 30 µM
